This is an account of results in US20230278998A1, “Compound containing structure of a five-membered heteroaromatic ring, pharmaceutical compositions thereof and applications thereof” (280 Bio, Inc., priority 2022, published 2023).

The structures appear in SMILES notation.

Sequence of PARG (389-976) (Q86W56 389-976): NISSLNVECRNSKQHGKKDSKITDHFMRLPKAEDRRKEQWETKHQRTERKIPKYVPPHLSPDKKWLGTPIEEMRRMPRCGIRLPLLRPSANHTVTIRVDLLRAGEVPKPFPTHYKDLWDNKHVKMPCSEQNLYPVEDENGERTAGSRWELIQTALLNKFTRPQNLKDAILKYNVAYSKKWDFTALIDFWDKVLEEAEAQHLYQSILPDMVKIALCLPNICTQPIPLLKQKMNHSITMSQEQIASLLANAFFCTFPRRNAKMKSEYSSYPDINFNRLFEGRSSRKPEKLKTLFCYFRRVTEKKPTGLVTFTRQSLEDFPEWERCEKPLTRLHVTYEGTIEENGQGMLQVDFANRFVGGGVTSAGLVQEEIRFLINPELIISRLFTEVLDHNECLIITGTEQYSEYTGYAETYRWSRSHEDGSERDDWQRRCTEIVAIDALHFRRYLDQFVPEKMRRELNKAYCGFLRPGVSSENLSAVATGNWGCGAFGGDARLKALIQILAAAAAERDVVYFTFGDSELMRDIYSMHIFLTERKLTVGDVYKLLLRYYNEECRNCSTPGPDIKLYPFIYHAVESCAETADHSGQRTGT

In the first assay the target is PARG (389-976) (Homo sapiens (Human), UniProt Q86W56). The experiment in a line: PARG enzyme inhibition assay (TR-FRET). As to conditions: Table 1, class symbol. The format is biochemical. The procedure:
PARG Enzyme Inhibition Assay
PARG in vitro assays were conducted in standard 384-well plates in a total volume of 15 μL.
`O=S(=O)(NC1(CF)CC1)c1ccc2c(c1)c(-c1nnc(C(F)F)s1)nn2CC1CC1` [Compound 12]: the IC50 was < 100 nM. Still for that read-out and setting: with `Cc1nc(C)c(Cn2nc(-c3nnc(C(F)F)s3)c3cc(S(=O)(=O)NC4(CF)CC4)ccc32)s1` [Compound 4] the figure was < 100 nM. Same read-out and setting: for `Cc1nc(C)c(Cn2nc(-c3nnc(C(F)F)s3)c3cc(S(=O)(=O)NC4(C)CC4)ccc32)s1` [Compound 1] the value was < 100 nM; for `Cc1nc(C)c(Cn2nc(-c3nnc(C(F)F)s3)c3cc(S(=O)(=O)NC4(C)CC4)cc(C(F)(F)F)c32)s1` [Compound 10], 100 to 1000 nM.

The assay is the same for the next values; noted with them: Table 2, class symbol.
In the case of `Cn1nc(-c2nnc(C(F)F)s2)c2cc(S(=O)(=O)NC3(C#N)CC3)cc(N3CCN(C(=O)C(F)(F)F)CC3)c21` [Compound 47], the IC50 was < 100 nM. Regarding `Cn1nc(-c2nnc(C(F)F)s2)c2cc(S(=O)(=O)NC3(C#N)CC3)cc(-c3ccccc3)c21` [Compound 28], the IC50 is < 100 nM. Still for that read-out and setting: with `Cn1nc(-c2nnc(C(F)F)s2)c2cc(S(=O)(=O)NC3(C#N)CC3)cc(N3CCN(c4cccnn4)CC3)c21` [Compound 41] the figure was < 100 nM. For `CCC(=O)N1CCN(c2cc(S(=O)(=O)NC3(C#N)CC3)cc3c(-c4nnc(C(F)F)s4)nn(C)c23)CC1` [Compound 45], the IC50 was < 100 nM. In the case of `Cn1nc(-c2nnc(C(F)F)s2)c2cc(S(=O)(=O)NC3(C#N)CC3)cc(N3CCN(C(=O)CC(F)(F)F)CC3)c21` [Compound 52], the IC50 is < 100 nM. On the same count and under the same terms, for `CC1(NS(=O)(=O)c2ccc3c(c2)c(-c2nnc(C(F)F)s2)nn3Cc2ccc3cn[nH]c3c2)CC1` [Compound 58] the value was < 100 nM; for `N#CC1(NS(=O)(=O)c2ccc3c(c2)c(-c2nnc(C(F)F)s2)nn3Cc2ccc(F)cc2)CC1` [Compound 57], < 100 nM. On the same count and under the same terms, for `CC(C)C(=O)N1CC=C(c2cc(S(=O)(=O)NC3(C#N)CC3)cc3c(-c4nnc(C(F)F)s4)nn(C)c23)CC1` [Compound 40] the value was < 100 nM; for `C[C@H]1CN(c2cc(S(=O)(=O)NC3(C#N)CC3)cc3c(-c4nnc(C(F)F)s4)nn(C)c23)CCO1` [Compound 35], < 100 nM; for `Cc1nc(C)c(Cn2nc(-c3nnc(C(F)F)s3)c3cc(S(=O)(=O)NC4(C)CC4)cc(F)c32)s1` [Compound 14], < 100 nM. Consider `Cn1nc(-c2nnc(C(F)F)s2)c2cc(S(=O)(=O)NC3(C#N)CC3)cc(N3CCC(N=[N+]=[N-])CC3)c21` [Compound 60], for which the IC50 was < 100 nM. On the same count and under the same terms, with `CC(C)CN1CCN(c2cc(S(=O)(=O)NC3(C#N)CC3)cc3c(-c4nnc(C(F)F)s4)nn(C)c23)CC1` [Compound 49] the figure was < 100 nM; with `CC(C)C(=O)N1CC2CCC(C1)N2c1cc(S(=O)(=O)NC2(C)CC2)cc2c(-c3nnc(C(F)F)s3)nn(C)c12` [Compound 62], < 100 nM. Turning to `CCC(C)C(=O)N1CCN(c2cc(S(=O)(=O)NC3(C#N)CC3)cc3c(-c4nnc(C(F)F)s4)nn(C)c23)CC1` (centres unmarked) [Compound 50], the IC50 is < 100 nM. The same measure, in the same setting: with `CC(C)C(=O)N1CCN(c2cc(S(=O)(=O)NC3(C#N)CC3)cc3c(-c4nnc(C(F)F)s4)nn(C(F)F)c23)CC1` [Compound 55] the figure was < 100 nM; with `CN(C)C(=O)N1CCN(c2cc(S(=O)(=O)NC3(C#N)CC3)cc3c(-c4nnc(C(F)F)s4)nn(C)c23)CC1` [Compound 33], < 100 nM; with `CC(C)N1CCN(c2cc(S(=O)(=O)NC3(C#N)CC3)cc3c(-c4nnc(C(F)F)s4)nn(C)c23)CC1` [Compound 54], < 100 nM. The same measure, in the same setting: for `Cn1nc(-c2nnc(C(F)F)s2)c2cc(S(=O)(=O)NC3(C#N)CC3)cc(-c3ccncn3)c21` [Compound 31] the value was < 100 nM. For the compound `Cc1nc(C)c(Cn2nc(-c3nnc(C(F)F)s3)c3cc(S(=O)(=O)NC4(C)CC4)c(F)cc32)s1` [Compound 13], the IC50 is < 100 nM. The same measure, in the same setting: for `Cn1nc(-c2nnc(C(F)F)s2)c2cc(S(=O)(=O)NC3(C#N)CC3)cc(N3CCN(c4ccccc4)CC3)c21` [Compound 53] the value was < 100 nM; for `C[C@@H]1CN(c2cc(S(=O)(=O)NC3(C#N)CC3)cc3c(-c4nnc(C(F)F)s4)nn(C)c23)CCO1` [Compound 37], < 100 nM; for `Cn1nc(-c2nnc(C(F)F)s2)c2cc(S(=O)(=O)NC3(C#N)CC3)cc(N3CCC4(CC3)COC4)c21` [Compound 46], < 100 nM. Turning to `CC(C)S(=O)(=O)N1CCN(c2cc(S(=O)(=O)NC3(C#N)CC3)cc3c(-c4nnc(C(F)F)s4)nn(C)c23)CC1` [Compound 48], the IC50 was < 100 nM.

`CC(=O)N1CCN(c2cc(S(=O)(=O)NC3(C#N)CC3)cc3c(-c4nnc(C(F)F)s4)nn(C)c23)CC1` [Compound 32]: the IC50 was < 100 nM.

The same assay, now with this note: Table 2, value in brackets.
On to `Cn1nc(-c2nnc(C(F)F)s2)c2cc(S(=O)(=O)NC3(C#N)CC3)cc(N3CCC4(CC3)COC4)c21` [Compound 46], for which the IC50 was 0.9 nM.

Staying with this assay, now noted: Table 3, class symbol.
`CC(C)C(=O)N1CC2(C1)CN(c1cc(S(=O)(=O)NC3(C#N)CC3)cc3c(-c4nnc(C(F)F)s4)nn(C)c13)C2` [Compound 77]: the IC50 is < 100 nM.

`CN(C)C(=O)c1ccc(-c2cc(S(=O)(=O)NC3(C#N)CC3)cc3c(-c4nnc(C(F)F)s4)nn(C)c23)cc1` [Compound 132]: the IC50 was < 100 nM. Still for that read-out and setting: with `Cn1nc(-c2nnc(C(F)F)s2)c2cc(S(=O)(=O)NC3(C#N)CC3)cc(N3CC4CCC(C3)C4C(=O)N3CCCC3)c21` (centres unmarked) [Compound 113] the figure was < 100 nM. Same read-out and setting: with `CC(C)C(=O)N1C2CCC1CC(c1cc(S(=O)(=O)NC3(C#N)CC3)cc3c(-c4nnc(C(F)F)s4)nn(C)c13)C2` (centres unmarked) [Compound 127] the figure was < 100 nM; with `CCn1nc(-c2nnc(C(F)F)s2)c2cc(S(=O)(=O)NC3(C#N)CC3)cc(N3CCN(C(=O)C(C)C)[C@H](C)C3)c21` [Compound 103], < 100 nM; with `Cn1nc(-c2nnc(C(F)F)s2)c2cc(S(=O)(=O)NC3(C#N)CC3)cc(C3=CCC(C(=O)N4CCCC4)CC3)c21` (centres unmarked) [Compound 137], < 100 nM. Still for that read-out and setting: with `C[C@H](N)C(=O)N1C2C=C(c3cc(S(=O)(=O)NC4(C#N)CC4)cc4c(-c5nnc(C(F)F)s5)nn(C)c34)CC1CC2` (some centres unmarked) [Compound 79] the figure was < 100 nM. Regarding `CC(C)C(=O)N1CCN(c2cc(S(=O)(=O)NC3(C#N)CC3)cc3c(-c4nnc(C(F)F)s4)nn(CC#N)c23)C[C@H]1C` [Compound 115], the IC50 was < 100 nM.

Consider `C[C@H](N)C(=O)N1C2CCC1CN(c1cc(S(=O)(=O)NC3(C#N)CC3)cc3c(-c4nnc(C(F)F)s4)nn(C)c13)C2` [Compound 73], for which the IC50 was < 100 nM. The same measure, in the same setting: for `Cn1nc(-c2nnc(C(F)F)s2)c2cc(S(=O)(=O)NC3(C#N)CC3)cc(N3CCC(N4CCCC4=O)CC3)c21` [Compound 139] the value was < 100 nM; for `Cn1nc(-c2nnc(C(F)F)s2)c2cc(S(=O)(=O)NC3(C#N)CC3)cc(C3CCC(C(=O)N4CCCC4)CC3)c21` (centres unmarked) [Compound 140], < 100 nM; for `N#CC1(NS(=O)(=O)c2cc(N3CC4(CCOCC4)C3)c3c(c2)c(-c2nnc(C(F)F)s2)nn3CC(F)(F)F)CC1` [Compound 133], < 100 nM. The same measure, in the same setting: for `CC(C)S(=O)(=O)N1CC=C(c2cc(S(=O)(=O)NC3(C#N)CC3)cc3c(-c4nnc(C(F)F)s4)nn(C)c23)CC1` [Compound 141] the value was < 100 nM. The same measure, in the same setting: with `C[C@H]1CN(c2cc(S(=O)(=O)NC3(C#N)CC3)cc3c(-c4nnc(C(F)F)s4)nn(C)c23)CCN1C(=O)N(C)C` [Compound 71] the figure was < 100 nM; with `CC(C)C(=O)N1CC=C(c2cc(S(=O)(=O)NC3(C#N)CC3)cc3c(-c4nnc(C(F)F)s4)nn(CC(F)(F)F)c23)CC1` [Compound 107], < 100 nM.

As to `Cn1nc(-c2nnc(C(F)F)s2)c2cc(S(=O)(=O)NC3(C#N)CC3)cc(N3CCN(C(=O)C4CCC4)CC3)c21` [Compound 144], the IC50 is < 100 nM. For `Cn1nc(-c2nnc(C(F)F)s2)c2cc(S(=O)(=O)NC3(C#N)CC3)cc(C3CC4CCC(C3)N4)c21` (centres unmarked) [Compound 121], the IC50 is < 100 nM.

`C[C@H](O)C(=O)N1CCC(c2cc(S(=O)(=O)NC3(C#N)CC3)cc3c(-c4nnc(C(F)F)s4)nn(C)c23)CC1` [Compound 114]: the IC50 is < 100 nM. Same read-out and setting: with `CC(C)C(=O)N1C2CCCC1CN(c1cc(S(=O)(=O)NC3(C#N)CC3)cc3c(-c4nnc(C(F)F)s4)nn(C)c13)C2` [Compound 84] the figure was < 100 nM; with `C[C@H](O)C(=O)N1CCN(c2cc(S(=O)(=O)NC3(C#N)CC3)cc3c(-c4nnc(C(F)F)s4)nn(CC(F)(F)F)c23)CC1` [Compound 110], < 100 nM; with `CC(C)C(=O)N1C2C=C(c3cc(S(=O)(=O)NC4(C#N)CC4)cc4c(-c5nnc(C(F)F)s5)nn(C)c34)CC1CCC2` (centres unmarked) [Compound 83], < 100 nM. Consider `CCn1nc(-c2nnc(C(F)F)s2)c2c(F)c(S(=O)(=O)NC3(C)CC3)cc(N3CCN(C(=O)C(C)C)CC3)c21` [Compound 66], for which the IC50 is < 100 nM. Same read-out and setting: for `CC(C)C(=O)N1CC=C(c2cc(S(=O)(=O)NC3(C#N)CC3)cc3c(-c4nnc(C(F)F)s4)nn(C[C@@H](O)CO)c23)CC1` [Compound 136] the value was < 100 nM; for `Cn1nc(-c2nnc(C(F)F)s2)c2cc(S(=O)(=O)NC3(C#N)CC3)cc(N3CCC(N4CCCC4)CC3)c21` [Compound 134], < 100 nM; for `Cn1nc(-c2nnc(C(F)F)s2)c2cc(S(=O)(=O)NC3(C#N)CC3)cc(-c3ccc(C(=O)N4CCCC4)cc3)c21` [Compound 135], < 100 nM. The same measure, in the same setting: with `CC(C)C(=O)N1CCN(c2cc(S(=O)(=O)NC3(C#N)CC3)cc3c(-c4nnc(C(F)F)s4)nn(CC(F)(F)F)c23)C[C@H]1C` [Compound 109] the figure was < 100 nM; with `CC(C)(O)C1CCN(c2cc(S(=O)(=O)NC3(C#N)CC3)cc3c(-c4nnc(C(F)F)s4)nn(CC(F)(F)F)c23)CC1` [Compound 105], < 100 nM. Turning to `Cn1nc(-c2nnc(C(F)F)s2)c2cc(S(=O)(=O)NC3(C#N)CC3)cc(N3CC4(CCOCC4)C3)c21` [Compound 106], the IC50 is < 100 nM. On to `CC(C)C(=O)N1CCN(c2cc(S(=O)(=O)NC3(C#N)CC3)cc3c(-c4nnc(C(F)F)s4)nn(C)c23)C[C@H]1C` [Compound 69], for which the IC50 was < 100 nM.

`Cn1nc(-c2nnc(C(F)F)s2)c2cc(S(=O)(=O)NC3(C#N)CC3)cc(N3CC4CCC(C3)N4C(=O)C3CCCC3)c21` [Compound 75]: the concentration for half-maximal inhibition (IC50) is < 100 nM.
